“Also recorded” adds a separate entry of the source.
Assays:
LDLR [1] = assay: qPCR LDLR expression in HepG2 cells; format: cell-based, human; conditions: overnight simvastatin, then compound
TRIB1 = assay: qPCR TRIB1 expression in HepG2 cells; format: cell-based, human; conditions: for fold induction at 10 µM: Homo sapiens, 20 h, HepG2 cells
Protocol: (§1) In the primary screen, HepG2 cells were plated in 384-well plates at 2000 cells per well and incubated for 20 hours with each compound in duplicate at 10 microM concentration. Then RNA was isolated, reverse-transcribed to cDNA, and stored at −80° C. Expression levels of TRIB1 and other target genes, such as SORT1 and PCSK9, were determined by quantitative PCR. Relative gene expression level was normalized to expression of the housekeeping gene, GAPDH. A “hit” was defined as those compounds that caused a greater than 2-fold increase in relative target gene expression when normalized to GAPDH expression, compared to DMSO-treated control. Using these criteria, 130 hits were identified for TRIB1 (0.8% hit rate).
(§2) Further analysis of the expression levels of various proteins in the cholesterol and triglyceride biosynthetic pathways in response to TRIB1 inducer treatment was performed. In particular, transcript levels of additional lipoprotein metabolism pathway proteins SCAP, SREBF1, SREBF2, HMGCR, HMGCS, SCD1, FASN and MTTP were assessed by qPCR, along with TRIB1, LDLR, and PCSK9. The gene expression profile for the same subset of genes was also assessed after treatment with the statin atorvastatin (Lipitor), commonly used in therapy for hypercholesterolemia and other cardiovascular diseases.
(§3) The kinetics of the modulation of TRIB1, LDLR, PCSK9 and MTTP gene expression after treatment by select TRIB1 inducer compounds was monitored by qPCR analysis (FIG. 4). RNA was extracted from cells at various timepoints over 28 hours of treatment (0, 2, 4, 6, 8, 24, 28 hours). Specifically, compounds 12a and 14a induced transcriptional responses over time similar to those produced by berberine, a plant alkaloid used in Chinese medicine. […] Both compound 12a and compound 14a induce TRIB1 and LDLR and repress PCSK9 and MTTP expression with similar kinetics and similar fold change as berberine Importantly, both compounds induce these gene expression changes at much lower concentrations than berberine. […] This increased potency indicates the potential therapeutic efficacy of such compounds for treatment of cardiovascular diseases, particularly hypercholesterolemia and related conditions.

SCAP = assay: qPCR SCAP transcript level in HepG2 cells; format: cell-based, human; set-up: key: A: Increase <2-fold; B: Increase >2-fold; X: Decrease <2-fold; Y: Decrease >2-fold; No significant change
Protocol: as §1, §2

HMGCR = assay: qPCR HMGCR transcript level in HepG2 cells; format: cell-based, human
Protocol: as §1, §2

HepG2 cells [2] = assay: BODIPY-FL LDL uptake in HepG2 cells (high content microscopy); format: cell-based, human; conditions: treated 20 hours; BODIPY-FL LDL uptake monitored 5 hours
Protocol: TRIB1 inducers increase the rate of LDL uptake. HepG2 cells grown under standard culture conditions (10% FBS) were treated for 20 hours with compounds 2a, 14a and 12a at indicated concentrations and the uptake of BODIPY-FL conjugated LDL particles was monitored for 5 hours using high content microscopy. To control for regulation of LDL uptake by cholesterol, cells were grown in media depleted for (0.5% LPDS—lipoprotein deficient serum) or supplemented with cholesterol (0.5% LPDS plus cholesterol ([…] cholesterol and […] 25-OH cholesterol)).

HepG2 cells [3] = assay: Cell Titer Glo (CTG) cell viability assay; format: cell-based, human; set-up: key: A: Increase <2-fold; B: Increase >2-fold; X: Decrease <2-fold; Y: Decrease >2-fold; No significant change; conditions: cell viability (ATP)
Protocol: Cell viability was determined using a Cell Titer Glo (CTG) assay ([…]) after treatment with TRIB1 inducer compounds. In this assay, the number of viable cells in culture is based on quantitation of ATP, which indicates metabolically active cells. Addition of the reagent results in cell lysis and generation of a luminescent signal proportional to the amount of ATP present, which is directly proportional to the number of viable, metabolically active cells present in culture. Most TRIB1 inducer compounds had no significant effect on cell viability.

HMGCS = assay: qPCR HMGCS transcript level in HepG2 cells; format: cell-based; conditions: Homo sapiens, 20 h
Protocol: as §1, §2

SREBF2 = assay: qPCR SREBF2 transcript level in HepG2 cells; format: cell-based, human; set-up: key: A: Increase <2-fold; B: Increase >2-fold; X: Decrease <2-fold; Y: Decrease >2-fold; No significant change
Protocol: as §1, §2

PCSK9 [4] = assay: qPCR PCSK9 expression in HepG2 cells; format: cell-based, human; conditions: for fold induction at 10 µM: Homo sapiens, 20 h, HepG2 cells
Protocol: as §1, §2, §3

LDLR [5] = assay: ELISA of LDLR protein in HepG2 cells; format: cell-based, human; set-up: key to ELISA LDLR: A: Increase <2-fold; B: Increase >2-fold; X: Decrease <2-fold; Y: Decrease >2-fold; No significant change; conditions: for ELISA LDLR: HepG2 cells
Protocol: (§4) Additional secondary assays were performed in HepG2 cells to further characterize the cellular response to treatment with select confirmed TRIB1 inducer hits. The results of the ELISA, CTG, and qPCR secondary assays are summarized in Table B. For all secondary assays, the experiments were performed using powders of freshly purified compounds.
(§5) To further characterize the relationship of TRIB1 induction and PCSK9 reduction, ELISAs were performed to measure the levels of secreted ApoB, PCSK9, and LDLR. […] As predicted treatment with TRIB1 inducer hits caused a decrease in ApoB levels detected by ELISA. In parallel effort, 3200 BIOA and NATP compounds were screened for PCSK9 expression inhibitors. Hits were defined as inducing greater than 3-fold downregulation of PCSK9, and 3.8% of the screened compounds were confirmed as hits. […] In further experiments, a strong correlation was confirmed between TRIB1 induction and PCSK9 repression in DOS Collection hits. ELISA analysis confirmed that treatment with TRIB1 inducers reduced the PCSK9 protein levels. LDLR protein levels were also analyzed by ELISA to determine whether compounds that modulate both TRIB1 and PCSK9 had any effect on LDLR protein levels.

LDLR [6] = assay: qPCR LDLR expression in HepG2 cells; format: cell-based, human; conditions: for qPCR LDLR: HepG2 cells
Protocol: as §1, §2, §3

SREBF1 = assay: qPCR SREBF1 transcript level in HepG2 cells; format: cell-based, human; set-up: key: A: Increase <2-fold; B: Increase >2-fold; X: Decrease <2-fold; Y: Decrease >2-fold; No significant change
Protocol: as §1, §2

APOC3 = assay: Transcriptional profiling of APOC3 gene in HepG2 cells; format: cell-based, human; conditions: 10 μM, 24 hours
Source text: Expression of APOC3 is associated with increased levels of triglycerides in plasma and carriers of APOC3 gene null mutation have low levels of triglycerides and are protected from cardiovascular disease (Pollin et al., Science, 322:1702, 2008).

PCSK9 [7] = assay: ELISA of secreted PCSK9 protein in HepG2 cells; format: cell-based, human; conditions: for ELISA PCSK9: HepG2 cells
Protocol: as §4, §5

ApoB = assay: ELISA of secreted ApoB in HepG2 cells; format: cell-based, human; conditions: for ELISA ApoB: HepG2 cells
Protocol: as §4, §5

SCD1 = assay: qPCR SCD1 transcript level in HepG2 cells; format: cell-based; conditions: Homo sapiens, 20 h
Protocol: as §1, §2

FASN = assay: qPCR FASN transcript level in HepG2 cells; format: cell-based; conditions: Homo sapiens, 20 h
Protocol: as §1, §2

[8] = at the maximal dose tested, HepG2

| Compound | fold induction at 10 µM (TRIB1) | qPCR SCAP (SCAP) | qPCR HMGCR (HMGCR) | CTG (HepG2 cells [3]) | fold induction at 10 µM (HMGCS) | qPCR SREBF2 (SREBF2) | fold induction at 10 µM (PCSK9 [4]) | ELISA LDLR (LDLR [5]) | qPCR LDLR (LDLR [6]) | qPCR SREBF1 (SREBF1) | ELISA PCSK9 (PCSK9 [7]) | ELISA ApoB (ApoB) | fold induction at 10 µM (SCD1) | fold induction at 10 µM (FASN) | other results |
| --- | --- | --- | --- | --- | --- | --- | --- | --- | --- | --- | --- | --- | --- | --- | --- |
| CN1C(=O)c2cc(NC(=O)c3ccc(C(F)(F)F)cc3)ccc2OC[C@@H]2O[C@@H](CC(=O)NC3Cc4ccccc4C3)CC[C@@H]21 [Compound 2a] | > 2 | N | Y (Decrease >2-fold) | N | > 2 | N | > 2 | B (Increase >2-fold) | B (Increase >2-fold) | N | Y (Decrease >2-fold) | Y (Decrease >2-fold) | > 2 | > 2 | induction of LDLR expression in combination with simvastatin (in words) (LDLR [1]): additive effect; TRIB1 expression (in words) (TRIB1; HepG2, qPCR): robustly induced; rate of LDL uptake (in words) (HepG2 cells [2]): robust increase; PCSK9 expression (in words) (PCSK9 [4]; HepG2, qPCR): strongly reduced; inhibition of expression of PCSK9 mRNA (PCSK9 [4]; [8]): 70%; expression of PCSK9 stimulated by pretreatment with atorvastatin (in words) (PCSK9 [4]; atorvastatin pretreatment): potently reduced; increase of the LDL receptor protein in the cell (LDLR [5]; HepG2): 3 fold; LDLR expression (in words) (LDLR [6]; HepG2, qPCR): induction of LDLR expression; also recorded: robustly induced; expression of APOC3 gene (in words) (APOC3): down regulates; inhibition of secretion of PCSK9 protein into the media (PCSK9 [7]; [8]): 70%; secretion of apoB into the media / ApoB levels (in words) (ApoB; HepG2): inhibited secretion of apoB |
| O=C(C[C@H]1CC[C@H]2[C@@H](COC[C@@H](O)CN2Cc2ccc(Oc3ccccc3)cc2)O1)N1CCc2ccccc2C1 [Compound 7a] | > 2 | N | Y (Decrease >2-fold) | N | > 2 | N | > 2 | B (Increase >2-fold) | B (Increase >2-fold) | N | Y (Decrease >2-fold) | Y (Decrease >2-fold) | < 2 | < 2 |  |
| O=C(C[C@@H]1CC[C@@H]2[C@H](COC[C@@H](O)CN2CCC(F)(F)F)O1)NCc1ccc(Oc2ccccc2)cc1 [Compound 8a] | > 2 | N | Y (Decrease >2-fold) | N | > 2 | N | > 2 | B (Increase >2-fold) | B (Increase >2-fold) | N | X (Decrease <2-fold) | Y (Decrease >2-fold) | < 2 | < 2 |  |
| O=C(C[C@H]1CC[C@@H]2[C@H](COC[C@H](O)CN2Cc2ccc(Oc3ccccc3)cc2)O1)N1CCc2ccccc2C1 [Compound 9a] | > 2 | N | Y (Decrease >2-fold) | X (Decrease <2-fold) | > 2 | B (Increase >2-fold) | > 2 | B (Increase >2-fold) | B (Increase >2-fold) | N | Y (Decrease >2-fold) | Y (Decrease >2-fold) | > 2 | > 2 |  |
| O=C(C[C@@H]1CC[C@@H]2[C@H](COC[C@H](O)CN2CCC(F)(F)F)O1)NCc1ccc(Oc2ccccc2)cc1 [Compound 10a] | > 2 | N | Y (Decrease >2-fold) | N | > 2 | N | > 2 | N | B (Increase >2-fold) | N | X (Decrease <2-fold) | Y (Decrease >2-fold) | > 2 | < 2 |  |
| O=C(C[C@H]1C[C@H]2c3cc(NC(=O)c4ccc5c(c4)OCO5)ccc3O[C@H]2[C@H](CO)O1)NCc1ccc(Oc2ccccc2)cc1 [Compound 11a] | > 2 | N | Y (Decrease >2-fold) | Y (Decrease >2-fold) | > 2 | Y (Decrease >2-fold) | > 2 | B (Increase >2-fold) | B (Increase >2-fold) | Y (Decrease >2-fold) | Y (Decrease >2-fold) | Y (Decrease >2-fold) | > 2 | > 2 |  |
| O=C(C[C@H]1C[C@H]2c3cc(NS(=O)(=O)c4ccc(F)cc4)ccc3O[C@H]2[C@H](CO)O1)NCc1ccc(Oc2ccccc2)cc1 [Compound 13a] | > 2 | N | Y (Decrease >2-fold) | N | > 2 | N | > 2 | X (Decrease <2-fold) | B (Increase >2-fold) | N | Y (Decrease >2-fold) | Y (Decrease >2-fold) | > 2 | < 2 |  |
